Assay: Reduction of hydrogen peroxide
Type: biochemical
Details: compound 0.1 mM, 10 min, pH 7.4
From the text: For the above reasons, the antioxidant ability of 5–F–saloH and Cu(II) complexes 1–5 has been evaluated via their scavenging activity towards DPPH and ABTS radicals, as well as the ability to reduce H2O2, and in comparison with that of well-known antioxidant agents such as nordihydroguaiaretic acid (NDGA), butylated hydroxytoluene (ΒHΤ), 6–hydroxy–2,5,7,8–tetramethylchromane–2–carboxylic acid (trolox) and L–ascorbic acid (these are the most commonly used standard reference antioxidant agents). The DPPH-radical assay was developed in the 1950s and this method has been used to assess the antioxidant capacity of several metal complexes. The DPPH–scavenging ability of compounds has often been related to their ability to prevent ageing, cancer and inflammation. The ability of a compound to scavenge the cationic ABTS radicals (ABTS^+●) has been considered a measure of its total antioxidant activity. Further, hydrogen peroxide has the ability to penetrate biological membranes and, although it is not very reactive itself, it can sometimes be toxic since it may give rise to hydroxyl radicals in cells. For this reason, the removal of H2O2 is very important for the protection of living systems. When a compound is incubated with H2O2 using a peroxidase assay system, the loss of H2O2 can be measured.
S1 Antioxidant activity assay
The antioxidant activity of the compounds was evaluated via their ability to scavenge in vitro free radicals such as DPPH and ABTS and to reduce H 2O2. All the experiments were carried out at least in triplicate and the standard deviation of absorbance was less than 10% of the mean.
S1.1 Determination of the reducing activity of the radical DPPH […]
S1.3 Reduction of hydrogen peroxide
The ability of the com pounds to reduce hydrogen peroxide (H2O2) was est imated according to the method descr ibed in the literature [S2]. The reaction mixture contained 20 μL of each of the tested compounds (0.1 mM) and 5 μL H2O 2 solution (40 mM) in phosphate buffer (50 mM, pH = 7.4). The absorbance was measure d at 230 nm after 10 min.
The antioxidant activity (reduction of hydrogen peroxide) of the compounds wa s […]
expressed as the percentage decrease of t he init ial H 2O2 solution (H 2O2%). L-ascor b ic ac id (or vitamin C) was use d as a standard. […]
[DNA] = [DNA] + 1 (eq. S1) […]
where [DNA] is the concentration of DNA in base pa irs, εA = Aobsd/[compound ], εf = the extinction coefficient for the free compound and ε b = the extinction coefficient for the compound in the fully bound form. Kb is given by the ratio of slope to the y intercept in plots [DNA]/(εA-εf) versus[DNA].
S2.2CT DNA -binding studie s by viscosity measurements
The interaction of compounds with DNA has been evaluated via the study of the CT DNA viscosity ([DNA] = 0.1 mΜ) in a buffer solution (150 mM NaCl and 15 mM trisodium citrate at pH 7.0) in the presence of increasing amount of complexes (up to the value of r = 0.36). The obtained data are presented as (η/η 0)1/3 versus r, where η is the viscosity of DNA in the presence of the compound, and η0 is the viscosity of DNA alone in buffer solution.
S2.3 EB -displa cement studie s
The competition of the complexes with EB was investigated by fluorescence emission spectroscopy in order to examine whether the compounds can displace EB from its DNA-EB conjugate. The CT DNA-EB complex was formed by pre-treating 20 μM EB and 26 μM CT DNA in buffer (150 mM NaCl and 15 mM trisodium citrate at pH = 7.0).
The possible displacement of EB by the compounds and su bseq uently t he ir intercalating effect was studied by the stepwise addition of a certain amount of the solution of each

Compound | H2O2%, H2O2–reducing activity [%]
CO.Cc1ccc2ccc3ccc(C)nc3c2n1.O=Cc1cc(F)ccc1[O-].[Cl-].[Cu+2] [Complex 3, [Cu(5–F–salo)(neoc)Cl].CH3OH] | 26.10 ± 0.66
O=Cc1cc(F)ccc1[O-].O=[N+]([O-])[O-].[Cu+2].c1ccc(-c2ccccn2)nc1 [Complex 5, [Cu(5–F–salo)(bipy)(NO3)]] | 69.21 ± 1.10
O=Cc1cc(F)ccc1[O-].[Cl-].[Cu+2].c1ccc(Nc2ccccn2)nc1 [Complex 2, [Cu(5–F–salo)(bipyam)Cl]] | 99.69 ± 0.29
O=Cc1cc(F)ccc1[O-].O=Cc1cc(F)ccc1[O-].[Cu+2] [Complex 1, [Cu(5–F–salo)2]] | 71.61 ± 0.35
O=Cc1cc(F)ccc1[O-].O=[N+]([O-])[O-].[Cu+2].c1cnc2c(c1)ccc1cccnc12 [Complex 4, [Cu(5–F–salo)(phen)(NO3)]] | 25.90 ± 0.76

Source: PMC9782626, “Copper(II) Complexes of 5–Fluoro–Salicylaldehyde: Synthesis, Characterization, Antioxidant Properties, Interaction with DNA and Serum Albumins” (Molecules, 2022)
